# Measured values reported in PubChem BioAssay (NCI).
#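 Growth conditions: 96-well plates. Treatment: test compound, 48 hours, 5 concentrations. Analysis: linear interpolation between bracketing concentrations; unreached endpoints set to highest concentration. At the TGI there is no net growth.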
# Columns and labels:
# Assay in all cases: NCI tumour cell line growth inhibition, 48 h
# CAKI-1 renal = tested on: CAKI-1 renal
# DLD-1 colon = tested on: DLD-1 colon
# DMS 114 small cell lung = tested on: DMS 114 small cell lung
# HOP-18 NSCLC = tested on: HOP-18 NSCLC
# HOP-62 NSCLC = tested on: HOP-62 NSCLC
# KM20L2 colon = tested on: KM20L2 colon
# LXFL 529 NSCLC = tested on: LXFL 529 NSCLC
# M19-MEL melanoma = tested on: M19-MEL melanoma
# NCI-H23 lung = tested on: NCI-H23 lung
# RPMI-8226 leukemia = tested on: RPMI-8226 leukemia
# SF-295 CNS = tested on: SF-295 CNS
# SNB-78 CNS = tested on: SNB-78 CNS
# XF 498 CNS = tested on: XF 498 CNS
# DMS 273 small cell lung = tested on: DMS 273 small cell lung
# SK-MEL-2 melanoma = tested on: SK-MEL-2 melanoma
# RXF-631 renal = tested on: RXF-631 renal
Compound,TGI (CAKI-1 renal),TGI (DLD-1 colon),TGI (DMS 114 small cell lung),TGI (HOP-18 NSCLC),TGI (HOP-62 NSCLC),TGI (KM20L2 colon),TGI (LXFL 529 NSCLC),TGI (M19-MEL melanoma),TGI (NCI-H23 lung),TGI (RPMI-8226 leukemia),TGI (SF-295 CNS),TGI (SNB-78 CNS),TGI (XF 498 CNS),TGI (DMS 273 small cell lung),TGI (SK-MEL-2 melanoma),TGI (RXF-631 renal)
O=C(Nc1ccc(Cl)cc1C(F)(F)F)C(=O)C1CCCS1(=O)=O (configuration not stated),> 100 µM,> 100 µM,> 100 µM,> 100 µM,> 100 µM,> 100 µM,> 100 µM,> 100 µM,> 100 µM,> 100 µM,> 100 µM,> 100 µM,> 100 µM,–,–,–
Cc1c[n+]2c3ccccc3c3ccccc3c2s1,31.5 µM,> 44.5 µM,16.1 µM,> 100 µM,28 µM,–,21.6 µM,18.3 µM,3.9 µM,57.8 µM,33.5 µM,> 29.5 µM,18 µM,20.1 µM,25.7 µM,–
N#CCc1c(-c2ccccc2)n(S(=O)(=O)c2ccccc2)c2ccccc12,> 100 µM,> 100 µM,> 100 µM,–,> 100 µM,> 100 µM,> 100 µM,> 100 µM,> 100 µM,> 100 µM,> 100 µM,–,> 100 µM,> 100 µM,> 100 µM,–
CCOC(=O)CC1COc2ccc3c(c21)OCO3 (configuration not stated),–,> 100 µM,> 100 µM,> 100 µM,> 100 µM,> 100 µM,> 100 µM,> 100 µM,> 100 µM,> 100 µM,> 100 µM,> 100 µM,> 100 µM,> 100 µM,> 100 µM,–
COc1cc2c3cc1Oc1c(O)c(OC)cc4c1C(Cc1ccc(O)c(c1)Oc1ccc(cc1)CC3N(C)CC2)N(C)CC4 (configuration not stated),32.4 µM,–,44.8 µM,45 µM,33.8 µM,17.4 µM,17.1 µM,43.8 µM,39 µM,84.4 µM,29.7 µM,50.7 µM,33.5 µM,30.6 µM,38.4 µM,–
C=CCNC(=S)N1CC(C)C(=O)Nc2cc(Cl)ccc21 (configuration not stated),> 100 µM,> 100 µM,> 100 µM,> 100 µM,> 100 µM,> 100 µM,> 100 µM,> 100 µM,> 100 µM,> 100 µM,> 100 µM,> 100 µM,–,> 100 µM,> 100 µM,–
CCCCCCCCCCCC(=O)OC[C@H](C[As](=O)(O)O)OC(=O)CCCCCCCCCCC,20.8 µM,26.7 µM,4.77 µM,20.3 µM,31.7 µM,18.8 µM,14 µM,22 µM,21.2 µM,> 76.8 µM,27 µM,9.45 µM,24 µM,15 µM,6.48 µM,–
O=C(O)/C(Cl)=C(\Cl)C(=O)c1ccccc1,> 100 µM,> 100 µM,> 100 µM,–,> 100 µM,> 100 µM,> 100 µM,> 100 µM,> 100 µM,–,> 100 µM,> 100 µM,> 100 µM,> 100 µM,> 100 µM,–
CCOC(=O)C(NC(=O)c1ccccc1)(Nc1ccc(S(=O)(=O)Nc2ncccn2)cc1)C(F)(F)F (configuration not stated),> 100 µM,–,–,–,> 100 µM,–,–,–,> 100 µM,> 100 µM,> 100 µM,–,–,–,> 100 µM,–
CCC(C)C(N)C(=O)NC(CC(N)=O)C(=O)NC(CC(C)C)C(=O)NC(CCCCN)C(=O)NC(C)C(=O)NC(CC(C)C)C(=O)NC(C)C(=O)NC(C)C(=O)NC(CC(C)C)C(=O)NC(C)C(=O)NC(CCCCN)C(=O)NC(CCCCN)C(=O)NC(C(=O)NC(CC(C)C)C(N)=O)C(C)CC (configuration not stated),22.5 µM,25 µM,28.1 µM,13.5 µM,8.55 µM,> 58.6 µM,28.7 µM,25.9 µM,29 µM,–,35.3 µM,29.2 µM,–,17 µM,36.8 µM,19.5 µM
O=C(Cc1ccccc1F)NC1=C(Cl)C(=O)c2ccccc2C1=O,9.42 µM,–,0.543 µM,3.32 µM,24.2 µM,29.8 µM,5.56 µM,12.4 µM,3.87 µM,19.1 µM,11.8 µM,–,1.68 µM,11.5 µM,2.98 µM,–
COCCN(CCNC(=O)c1cccc2c(N)c3cccc(C)c3nc12)CCOC,4.49 µM,–,–,–,11.3 µM,–,–,–,3.53 µM,5.91 µM,> 22.9 µM,–,–,–,18.7 µM,–
CCOC(=O)Cn1c2ccccc2c(=O)c2cc(C)c(C)c(C#N)c21,–,> 100 µM,–,> 100 µM,> 100 µM,> 100 µM,> 100 µM,> 100 µM,> 100 µM,> 100 µM,> 100 µM,> 100 µM,97.2 µM,> 100 µM,> 100 µM,> 100 µM
CC(CCC[C@H](C)CO)[C@H]1[C@@H](O)C(O)C2[C@@H]3C[C@@H](O)C4(O)C[C@@H](O)CC[C@]4(C)C3CC[C@@]21C (some centres not stated),> 100 µM,> 100 µM,> 100 µM,> 100 µM,> 100 µM,> 100 µM,> 100 µM,> 100 µM,> 100 µM,> 100 µM,> 100 µM,> 100 µM,> 100 µM,> 100 µM,> 100 µM,–
O=c1c2ccccc2[nH]n1Cc1ccccc1,> 100 µM,–,–,–,> 100 µM,–,–,–,> 100 µM,> 100 µM,> 100 µM,–,–,–,> 100 µM,–
S=C(N/N=C(\c1ccccc1)c1ccccn1)NC1CCCCC1,> 100 µM,–,–,–,> 100 µM,–,–,–,> 100 µM,> 100 µM,> 80.1 µM,–,–,–,> 100 µM,–

Compound,TGI (CAKI-1 renal),TGI (DLD-1 colon),TGI (DMS 114 small cell lung),TGI (HOP-18 NSCLC),TGI (HOP-62 NSCLC),TGI (KM20L2 colon),TGI (LXFL 529 NSCLC),TGI (M19-MEL melanoma),TGI (NCI-H23 lung),TGI (RPMI-8226 leukemia),TGI (SF-295 CNS),TGI (SNB-78 CNS),TGI (XF 498 CNS),TGI (DMS 273 small cell lung),TGI (SK-MEL-2 melanoma),TGI (RXF-631 renal)
CC(=O)OCC1OC(n2ccc(=O)[nH]c2=O)C(OC(C)=O)C(OC(C)=O)C1OC(C)=O (configuration not stated),> 100 µM,> 100 µM,> 100 µM,> 100 µM,> 100 µM,> 100 µM,> 100 µM,> 100 µM,> 100 µM,> 100 µM,> 100 µM,–,> 100 µM,> 100 µM,> 100 µM,–
NC(N)=NS(=O)(=O)c1ccc(N/N=C2/CCOC2=O)cc1,> 100 µM,–,–,–,77.8 µM,–,–,–,> 100 µM,> 100 µM,> 100 µM,–,–,–,> 100 µM,–
CCNC(=O)c1cc(Cl)ccc1NC(=O)C12CC3CC(CC(C3)C1)C2,> 100 µM,–,–,–,> 100 µM,–,–,–,> 100 µM,86.7 µM,> 100 µM,–,–,–,81.9 µM,–
COc1ccc(C2=NN(c3ccccc3)C[N+](c3ccc(C)cc3)=N2)cc1,–,> 100 µM,65.1 µM,–,> 100 µM,> 100 µM,38.5 µM,> 100 µM,> 100 µM,67.4 µM,> 100 µM,> 100 µM,52.9 µM,> 10 µM,–,–
CCCCCCCCCCCCOP(=O)(O)OP(=O)(O)OCC1OC(n2ccc(N)nc2=O)CC1O (configuration not stated),> 100 µM,–,–,–,> 100 µM,–,–,–,> 100 µM,> 100 µM,> 100 µM,–,–,–,> 100 µM,–
COC(=O)c1cc(C(=O)OC)c(CC(=O)C(=O)NC2C3CC4CC(C3)CC2C4)nc1CC(=O)C(=O)NC1C2CC3CC(C2)CC1C3 (configuration not stated),> 100 µM,> 100 µM,> 100 µM,> 100 µM,> 100 µM,> 100 µM,> 100 µM,> 100 µM,> 100 µM,> 100 µM,> 100 µM,> 100 µM,–,> 100 µM,> 100 µM,–
C=CC(O)(CBr)CCC(Br)C(=C)C (configuration not stated),> 10 µM,–,–,–,> 10 µM,–,–,–,> 10 µM,> 10 µM,> 10 µM,–,–,–,> 10 µM,–
CC(=O)OC(CC1(C)C(C)CCC23COC(=O)C2=CCCC31)c1ccoc1 (configuration not stated),–,> 100 µM,> 100 µM,–,85.3 µM,58.7 µM,38.9 µM,> 100 µM,54.5 µM,–,> 100 µM,70.4 µM,44.6 µM,–,49.7 µM,–
CC(Oc1ccccc1Cl)C(=O)NN1C(=O)CC(=O)N(c2ccccc2)C1=S (configuration not stated),> 100 µM,–,–,–,> 100 µM,–,–,–,> 100 µM,> 100 µM,> 100 µM,–,–,–,> 100 µM,–
COc1cc2c(c(OC)c1OC)-c1ccc(SC)c(=O)cc1C(CC(=O)Oc1cccc([N+](=O)[O-])c1)C2 (configuration not stated),> 100 µM,> 56.9 µM,3.95 µM,> 100 µM,> 100 µM,2.06 µM,> 100 µM,> 100 µM,–,> 54.8 µM,> 100 µM,> 100 µM,20.3 µM,> 100 µM,> 100 µM,12.8 µM
COc1ccc(/C=C2/CSCC3=C2NC(=S)NC3c2ccc(OC)c(OC)c2OC)c(OC)c1OC (configuration not stated),92.2 µM,–,–,–,47.9 µM,–,–,–,43 µM,> 100 µM,> 100 µM,–,–,–,63.6 µM,–
Cc1cccc(Br)[n+]1[O-],> 100 µM,–,–,–,> 100 µM,–,–,–,> 100 µM,> 100 µM,> 100 µM,–,–,–,> 100 µM,–
NCCSc1cc(O)c2c(c1N)C(=O)c1ccccc1C2=O,> 100 µM,> 100 µM,–,–,> 100 µM,> 100 µM,> 100 µM,73.6 µM,> 100 µM,–,> 100 µM,> 100 µM,49.5 µM,–,> 100 µM,97.1 µM
CC1CN=C(NS(=O)(=O)c2cc(C(=O)Nc3ccc(Cl)cc3)c(Cl)cc2S)NN1 (configuration not stated),> 100 µM,–,–,–,> 100 µM,–,–,–,> 100 µM,70.8 µM,> 100 µM,–,–,–,71.2 µM,–
CCOC(=O)C(=O)C=P(c1ccccc1)(c1ccccc1)c1ccccc1,> 100 µM,> 100 µM,> 100 µM,> 100 µM,> 100 µM,> 100 µM,> 100 µM,> 100 µM,> 100 µM,> 100 µM,> 100 µM,> 100 µM,–,> 100 µM,> 100 µM,> 100 µM
CSc1nc(C)cc(Nc2ccc(O)c(CN3CCOCC3)c2)n1,> 100 µM,–,–,–,> 100 µM,–,–,–,> 100 µM,> 100 µM,> 100 µM,–,–,–,> 100 µM,–
